In patent US9963448B2, “Bicyclic inhibitors of PAD4” (Padlock Therapeutics, Inc., priority 2015, dated 2018):
pIC50: −log10 of the molar value. Structures can show the parent of a compound that is named as a salt. Where two headings read alike, the source gives them in different places.

Legend:
[1] = target: mPAD4 (Mus musculus, UniProt Q9Z183); test: mPAD4 RFMS PAD4 inhibition assay; format: biochemical; conditions: mPAD4, RFMS readout; for IC50: pIC50=−log(IC50), read-out: mPAD4 RFMS pIC50 (converted); for pIC50: read-out: mPAD4 RFMS IC50;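 for mPAD4 RFMS pIC50: grade E means pIC50 at most 4 and F means pIC50 4.0 to 5.0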
Sequence of mPAD4 (Q9Z183 whole entry): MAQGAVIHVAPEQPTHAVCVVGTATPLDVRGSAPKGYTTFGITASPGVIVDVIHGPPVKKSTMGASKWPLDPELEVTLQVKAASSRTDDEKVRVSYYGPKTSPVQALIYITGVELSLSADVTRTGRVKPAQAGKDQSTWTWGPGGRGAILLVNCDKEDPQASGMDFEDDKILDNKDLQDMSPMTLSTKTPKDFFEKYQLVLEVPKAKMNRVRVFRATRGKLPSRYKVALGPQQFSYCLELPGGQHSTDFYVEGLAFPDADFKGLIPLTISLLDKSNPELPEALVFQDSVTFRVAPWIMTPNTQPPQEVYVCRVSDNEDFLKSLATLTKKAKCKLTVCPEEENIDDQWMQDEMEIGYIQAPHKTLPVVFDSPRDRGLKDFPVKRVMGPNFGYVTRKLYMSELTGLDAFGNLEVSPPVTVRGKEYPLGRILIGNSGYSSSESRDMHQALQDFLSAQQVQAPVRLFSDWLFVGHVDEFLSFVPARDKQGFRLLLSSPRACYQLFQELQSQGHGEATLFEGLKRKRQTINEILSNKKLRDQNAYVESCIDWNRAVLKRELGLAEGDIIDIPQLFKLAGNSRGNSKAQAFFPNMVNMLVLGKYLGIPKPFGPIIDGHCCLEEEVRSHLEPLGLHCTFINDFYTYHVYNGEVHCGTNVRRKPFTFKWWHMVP
Protocol: (§1) Compounds of the present invention were assayed as inhibitors of PAD4 using the assay protocol described below.
(§2) Compound stock solutions were stored at RT. […] Final assay conditions were as follows:
(§3) Total incubation time: 65 mins at 37° C.
(§4) Stop solution: 40 μl 5% TCA in ACN
(§5) The compound numbers correspond to the compound numbers in Table 1. […] The term pIC50=−log(IC50). […] “NA” stands for “not assayed.”

[2] = target: hPAD4 (Homo sapiens, UniProt Q9UM07); test: hPAD4 RFMS (RapidFire mass spectrometry) PAD4 inhibition assay; format: biochemical; conditions: hPAD4 enzyme, RFMS readout; for IC50: pIC50=−log(IC50), read-out: hPAD4 RFMS pIC50 (converted); for pIC50: read-out: hPAD4 RFMS IC50;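 for hPAD4 RFMS pIC50: grade E means pIC50 at most 4 and F means pIC50 4.0 to 5.0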
Sequence of hPAD4 (Q9UM07 whole entry): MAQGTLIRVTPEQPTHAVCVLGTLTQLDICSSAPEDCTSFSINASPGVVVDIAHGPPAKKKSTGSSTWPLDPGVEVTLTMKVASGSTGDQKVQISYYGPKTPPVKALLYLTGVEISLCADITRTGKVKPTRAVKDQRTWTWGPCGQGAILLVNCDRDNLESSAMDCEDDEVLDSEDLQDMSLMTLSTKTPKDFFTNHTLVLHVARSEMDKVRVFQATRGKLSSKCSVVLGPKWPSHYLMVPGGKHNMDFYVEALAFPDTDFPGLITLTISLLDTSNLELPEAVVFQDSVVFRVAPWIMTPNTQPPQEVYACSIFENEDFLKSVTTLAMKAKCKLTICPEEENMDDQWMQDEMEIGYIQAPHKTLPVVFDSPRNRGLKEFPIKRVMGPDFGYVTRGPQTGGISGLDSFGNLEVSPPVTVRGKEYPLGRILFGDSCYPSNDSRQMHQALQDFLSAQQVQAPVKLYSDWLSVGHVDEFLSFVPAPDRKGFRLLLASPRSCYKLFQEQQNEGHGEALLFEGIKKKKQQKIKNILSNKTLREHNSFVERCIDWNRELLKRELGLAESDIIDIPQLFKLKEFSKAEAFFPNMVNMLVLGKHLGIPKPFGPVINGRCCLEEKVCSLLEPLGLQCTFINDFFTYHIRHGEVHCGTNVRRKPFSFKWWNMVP
Protocol: as §1, §2, §3, §4, §5

Row | IC50 [1] [µM] | pIC50 [1] | IC50 [2] [µM] | pIC50 [2] | SMILES
1 | < 1 | > 6.00 | < 1 | > 6.00 | COc1cc(C(=O)N2C[C@H]3CC[C@@H]2[C@@H]3N)cc2nc(-c3cc4cccnc4n3CC3CC3)n(CC[S+](C)[O-])c12 (stereo partly drawn) [Compound I-213, (1R,4R,7R)-2-{2-[1-(Cyclopropylmethyl)-1H-pyrrolo[2,3-b]pyridin-2-yl]-1-(2-methanesulfinylethyl)-7-methoxy-1H-1,3-benzodiazole-5-carbonyl}-2-azabicyclo[2.2.1]heptan-7-amine]
2 | < 1 | > 6.00 | < 1 | > 6.00 | CO[C@]1(C)C[C@H](Cn2c(-c3cc4cccnc4n3CC3CC3)nc3cc(C(=O)N4C[C@H]5CC[C@@H]4[C@@H]5N)cc(F)c32)C1 [Compound I-223]
3 | 10 to 100 | < 5.00 | 10 to 100 | < 5.00 | Cn1c(-c2cc3cccnc3n2CC2CC2)nc2cc(C(=O)N3CC[C@@H](F)[C@H](N)C3)ccc21 [Compound I-55]
4 | 10 to 100 | < 5.00 | 10 to 100 | < 5.00 | COc1cc(C(=O)N2C[C@@H]3CC[C@H]2[C@@H](N)C3)cc2nc(-c3cc4cccnc4n3CC3CC3)n(C)c12 [Compound I-212]
5 | < 1 | > 6.00 | < 1 | > 6.00 | COc1cc(C(=O)N2CC3CCC2C(N)C3)cc2nc(-c3cc4cccnc4n3CC3CC3)n(C)c12 (stereo not drawn) [Compound I-115]
6 | < 1 | > 6.00 | < 1 | > 6.00 | COc1ccc2cc(-c3nc4cc(C(=O)N5C[C@H]6CC[C@@H]5[C@@H]6N)cc(F)c4n3C)n(CC3CC3)c2n1 [Compound I-230]
7 | 10 to 100 | < 5.00 | 1 to 10 | 5.00 to 5.30 | Cn1c(-c2cc3cncnc3n2CC2CC2)nc2cc(C(=O)N3CCC4CCNC4C3)ccc21 (stereo not drawn) [Compound I-9, 2-[7-(Cyclopropylmethyl)-7H-pyrrolo[2,3-d]pyrimidin-6-yl]-1-methyl-5-{octahydro-1H-pyrrolo[2,3-c]pyridine-6-carbonyl}-1H-1,3-benzodiazole]
8 | 1 to 10 | 5.30 to 6.00 | 1 to 10 | 5.30 to 6.00 | CCn1c(-c2nc3cc(C(=O)N4CCC[C@@H](N)C4)cc(OC)c3n2CCOC)cc2cccnc21 [Compound I-176]
9 | 10 to 100 | < 5.00 | 10 to 100 | < 5.00 | COc1cc(C(=O)N2C[C@@H](N)CC[C@@H]2C)cc2nc(-c3cc4cccnc4n3CC3CC3)n(C)c12 [Compound I-89]
10 | 1 to 10 | 5.30 to 6.00 | < 1 | > 6.00 | CCn1c(-c2cc3cccnc3n2CC2CC2)nc2cc(C(=O)N3CC[C@@H]4CCN[C@@H]4C3)cc(OC)c21 [Compound I-23]
11 | < 1 | > 6.00 | < 1 | > 6.00 | [2H]C([2H])([2H])OC1(C)CC(Cn2c(-c3cc4cccnc4n3CC3CC3)nc3cc(C(=O)N4C[C@H]5CC[C@@H]4[C@@H]5N)cc(OC)c32)C1 (stereo partly drawn) [Compound I-238, (1R,4R,7R)-2-{2-[1-(cyclopropylmethyl)-1H-pyrrolo[2,3-b]pyridin-2-yl]-7-methoxy-1-{[3-(^2H3)methoxy-3-methylcyclobutyl]methyl}-1H-1,3-benzodiazole-5-carbonyl}-2-azabicyclo[2.2.1]heptan-7-amine]
12 | 1 to 10 | 5.00 to 5.30 | 1 to 10 | 5.30 to 6.00 | CO[C@@H]1CCN(C(=O)c2ccc3c(c2)nc(-c2cc4cccnc4n2CC2CC2)n3C)C[C@@H]1N (single isomer, unassigned) [Compound I-64]
13 | < 1 | > 6.00 | < 1 | > 6.00 | CCn1c(-c2nc3cc(C(=O)N4C[C@H]5CC[C@@H]4[C@@H]5N)cc(OC)c3n2C)cc2cccnc21 (racemic) [Compound I-143]
14 | 10 to 100 | < 5.00 | 1 to 10 | 5.30 to 6.00 | Cn1c(-c2cc3cccnc3n2CC2CC(C)(O)C2)nc2cc(C(=O)N3CCC[C@@H](N)C3)ccc21 (stereo partly drawn) [Compound I-110, 3-[(2-{5-[(3R)-3-Aminopiperidine-1-carbonyl]-1-methyl-1H-1,3-benzodiazol-2-yl}-1H-pyrrolo[2,3-b]pyridin-1-yl)methyl]-1-methylcyclobutan-1-ol]
15 | 10 to 100 | < 5.00 | 10 to 100 | < 5.00 | Cn1c(-c2cc3cccnc3n2CC2CC2)nc2cc(C(=O)N3CC[C@H]4CCN[C@H]4C3)cc(OC(F)F)c21 (single isomer, unassigned) [Compound I-24, hydrochloride]
16 | 1 to 10 | 5.00 to 5.30 | 1 to 10 | 5.30 to 6.00 | CCn1c(-c2nc3cc(C(=O)N4CCC[C@@H](N)C4)cc(F)c3n2C)cc2cccnc21 [Compound I-164]
17 | < 1 | > 6.00 | 1 to 10 | 5.30 to 6.00 | CO[C@H]1CCN(C(=O)c2cc(OC(F)F)c3c(c2)nc(-c2cc4cccnc4n2CC2CC2)n3C)C[C@H]1N [Compound I-134]

Row | IC50 [1] [µM] | pIC50 [1] | IC50 [2] [µM] | pIC50 [2] | SMILES
18 | > 100 | < 5.00 | > 100 | < 5.00 | COc1cc(C(=O)N2CCCC3(CNC3)C2)cc2nc(-c3cc4cccnc4n3CC3CC3)n(C)c12 [Compound I-100]
19 | 1 to 10 | 5.30 to 6.00 | 1 to 10 | > 6.00 | COc1cc(C(=O)N2CCC[C@@H](N)C2)cc2nc(-c3cc4cccnc4n3[C@@H](C)C3CC3)n(C)c12 [Compound I-102, (3R)-1-(2-{1-[(1S)-1-cyclopropylethyl]-1H-pyrrolo[2,3-b]pyridin-2-yl}-7-methoxy-1-methyl-1H-1,3-benzodiazole-5-carbonyl)piperidin-3-amine]
20 | < 1 | > 6.00 | < 1 | > 6.00 | COc1cc(C(=O)N2CCC[C@@H](N)C2)cc2nc(-c3cc4cccnc4n3CC3CC3)n(C[C@H]3C[C@@](C)(OC)C3)c12 [Compound I-182]
21 | < 1 | > 6.00 | < 1 | > 6.00 | CCCn1c(-c2nc3cc(C(=O)N4C[C@H]5CC[C@@H]4[C@@H]5N)cc(OC)c3n2C)cc2cccnc21 [Compound I-154]
22 | 1 to 10 | 5.30 to 6.00 | 1 to 10 | 5.30 to 6.00 | COc1cc(C(=O)N2CC[C@H](F)[C@H](N)C2)cc2nc(-c3cc4cccnc4n3CC3CC3)n(C)c12 [Compound I-90]
23 | 10 to 100 | < 5.00 | 10 to 100 | < 5.00 | COc1cc(C(=O)N2CC[C@H]3CCN[C@H]3C2)cc2nc(-c3cc4cccnc4n3CC3CC3)n(C)c12 [Compound I-17]
24 | < 1 | > 6.00 | 1 to 10 | 5.30 to 6.00 | Cn1c(-c2cc3cccnc3n2CC2CC2)nc2cc(C(=O)N3C[C@@H](N)C[C@H](F)C3)cc(OCC(F)F)c21 [Compound I-72]
25 | 10 to 100 | < 5.00 | 10 to 100 | < 5.00 | COc1cc(C(=O)N2CC(O)(C3CCCCN3)C2)cc2nc(-c3cc4cccnc4n3CC3CC3)n(C)c12 (racemic) [Compound I-74]
26 | 10 to 100 | < 5.00 | 1 to 10 | 5.00 to 5.30 | CCn1c(-c2nc3cc(C(=O)N4CCC[C@@H](N)C4)ccc3n2CCOC)cc2cccnc21 [Compound I-185]
27 | 1 to 10 | 5.30 to 6.00 | < 1 | > 6.00 | COc1cc(C(=O)N2CCC[C@@H](N)C2)cc2nc(-c3cc4cnc(C)nc4n3CC3CC3)n(C)c12 [Compound I-203]
28 | 10 to 100 | < 5.00 | 10 to 100 | < 5.00 | COc1cc(C(=O)N2CC(N)CC(C#N)C2)cc2nc(-c3cc4cccnc4n3CC3CC3)n(C)c12 (racemic) [Compound I-82, 5-Amino-1-{2-[1-(cyclopropylmethyl)-1H-pyrrolo[2,3-b]pyridin-2-yl]-7-methoxy-1-methyl-1H-1,3-benzodiazole-5-carbonyl}piperidine-3-carbonitrile]
29 | < 1 | > 6.00 | < 1 | > 6.00 | COc1cc(C(=O)N2C[C@@H](N)CC[C@H]2C)cc2nc(-c3cc4cccnc4n3CC3CC3)n(C)c12 [Compound I-36]
30 | < 1 | > 6.00 | < 1 | > 6.00 | COc1cc(C(=O)N2C[C@H]3CC[C@@H]2[C@@H]3N)cc2nc(-c3cc4cccnc4n3CC3CC3)n(C[C@H]3C[C@@](C)(OC)C3)c12 [Compound I-181]
31 | 1 to 10 | 5.30 to 6.00 | 1 to 10 | 5.30 to 6.00 | CCn1c(-c2nc3cc(C(=O)N4C[C@H]5CC[C@@H]4[C@@H]5N)cc(OC)c3n2[C@H]2C[C@@H](OC)C2)cc2cccnc21 [Compound I-218]
32 | 10 to 100 | < 5.00 | 10 to 100 | < 5.00 | Cc1cc2c(cc1C(=O)N1CCC[C@@H](N)C1)nc(-c1cc3cccnc3n1CC1CC1)n2C [Compound I-103, (3R)-1-{2-[1-(cyclopropylmethyl)-1H-pyrrolo[2,3-b]pyridin-2-yl]-1,6-dimethyl-1H-1,3-benzodiazole-5-carbonyl}piperidin-3-amine hydrochloride]
33 | < 1 | > 6.00 | < 1 | > 6.00 | CCn1c(-c2cc3cccnc3n2CC2CC2)nc2cc(C(=O)N3CCC[C@@H](N)C3)cc(OC)c21 [Compound I-119, (3R)-1-{2-[1-(cyclopropylmethyl)-1H-pyrrolo[2,3-b]pyridin-2-yl]-1-ethyl-7-methoxy-1H-1,3-benzodiazole-5-carbonyl}piperidin-3-amine]
